Assays:
[1] = test system: human airway epithelial cells (HAECs); test: Agilent miRNA chips, miRNA expression at four stages of differentiation of HAECs; details: for Modulation (ratio of the level of intensity of expression in log2 in two stages of differentiation) measured with the Agilent chips, D7 − D0 / Modulation (ratio of the level of intensity of expression in log2 in two stages of differentiation) measured with the Agilent chips, FC − D7 / Modulation (ratio of the level of intensity of expression in log2 in two stages of differentiation) measured with the Agilent chips, WD − D0 / Modulation (ratio of the level of intensity of expression in log2 in two stages of differentiation) measured with the Agilent chips, WD − FC / Level of intensity of expression in log2 measured with the Agilent chips, D0 / Level of intensity of expression in log2 measured with the Agilent chips, D7 / Level of intensity of expression in log2 measured with the Agilent chips, FC / Level of intensity of expression in log2 measured with the Agilent chips, WD: Table VI; for Modulation (ratio of the level of intensity of expression in log2 at two stages of differentiation), FC − D7 / Modulation (ratio of the level of intensity of expression in log2 at two stages of differentiation), WD − FC: Agilent miRNA chips, Table V; for Level of intensity of expression in log2 measured with the Agilent chips, D0: stage D0; for Level of intensity of expression in log2 measured with the Agilent chips, D7: stage D7; for Level of intensity of expression in log2 measured with the Agilent chips, FC: stage FC; for Level of intensity of expression in log2 measured with the Agilent chips, WD: stage WD
Source text: In parallel with the high-throughput sequencing of the microRNAs, the repertoire of expression of the microRNAs (microRNAome) is investigated using the technology of Agilent® microRNA chips. For this, RNA samples from the same patients as before were used, labeled and hybridized on Agilent® miRNA chips (Human miRNA Microarray v2, containing 866 human miRNAs and 89 human viral miRNAs, i.e. all the human miRNAs contained and referenced in Sanger miRBase v.12.0, Agilent Technologies, France) using the “miRNA labeling and hybridization” kit, following the supplier's instructions (Agilent Technologies).
The inventors then used the Agilent miRNA chips to investigate the repertoire of expression of the miRNAs of the human airway epithelium and compare the results obtained in high-throughput sequencing with those obtained with Agilent® commercial miRNA chips.

[2] = test system: human airway epithelial cells (HAECs); test: High-throughput sequencing (HTS) of miRNAs at four stages of differentiation of HAECs; details: for Modulation (ratio of the level of intensity of expression in log2 in two stages of differentiation) measured by high-throughput sequencing, D7 − D0 / Modulation (ratio of the level of intensity of expression in log2 in two stages of differentiation) measured by high-throughput sequencing, FC − D7 / Modulation (ratio of the level of intensity of expression in log2 in two stages of differentiation) measured by high-throughput sequencing, WD − D0 / Modulation (ratio of the level of intensity of expression in log2 in two stages of differentiation) measured by high-throughput sequencing, WD − FC / Level of intensity of expression in log2 measured by high-throughput sequencing, D0 / Level of intensity of expression in log2 measured by high-throughput sequencing, D7 / Level of intensity of expression in log2 measured by high-throughput sequencing, FC / Level of intensity of expression in log2 measured by high-throughput sequencing, WD: Table VI; for Level of intensity of expression in log2 At the differentiated stage (WD) measured in HTS: healthy human airway epithelial tissue; for Level of intensity of expression in log2 measured by high-throughput sequencing, D0: stage D0; for Level of intensity of expression in log2 measured by high-throughput sequencing, D7: stage D7; for Level of intensity of expression in log2 measured by high-throughput sequencing, FC: stage FC; for Level of intensity of expression in log2 At the differentiated stage (WD) measured in HTS / Level of intensity of expression in log2 measured by high-throughput sequencing, WD: stage WD
Source text: The total RNAs were extracted from HAECs cultivated at the air-liquid interface at four stages of differentiation: ALI-D0 (0 day), ALI-D7 (7 days), ALI-FC (during appearance of the first cilia at about 14 days) and ALI-WD (wholly differentiated at about 21 days). The cells are lysed in reagent with Trizol® (Invitrogen). The total RNAs containing small RNAs and microRNAs are purified on Qiagen RNEasy columns (Qiagen) according to the supplier's instructions.
The total RNAs containing small RNAs and microRNAs are isolated as before. The procedure is based on the Applied Biosystems Ligase-Enhanced Genome Detection technology (LEGenD™); the SOLiD™ Small RNA Expression kit (Applied Biosystems, France) was used. With this method it is possible to convert the small RNAs of a sample into a library of double-stranded DNA; it was developed by Applied Biosystems SOLiD™ System for a new generation of high-throughput sequencing.
The high-throughput sequencing of the microRNAs was carried out according to the supplier's recommendations. Briefly, the total RNAs containing the small RNAs are hybridized (65° C., 10 min, then at 16° C., 5 min) and ligated (16° C., 2-16 h in a thermocycler) with the Adaptor Mix A for producing a matrix for sequencing the 5′ end of the small RNAs, or with the Adaptor Mix B for sequencing the 3′ end. The samples are then reverse-transcribed (42° C., 30 min) to synthesize the complementary DNA (cDNA). The library of small RNAs is amplified by PCR and after migration on polyacrylamide gel the amplified small RNAs are cut out and extracted from the gel according to their size (length of about 105-150 bases, according to the supplier's instructions), eluted and resuspended in nuclease-free water. The concentration of nucleic acids is then measured and normalized before proceeding with preparation of the samples for sequencing.
For each microRNA sequenced, the number of sequences of the 5p strand and of the 3p strand of the microRNA was normalized to 10^6 sequences and converted to percentage abundance of expression for each of the microRNAs. The data were then normalized according to a linear model and an empirical Bayesian method using software R. For subsequent analyses, only the microRNAs were retained for which the percentage expression (or abundance) is greater than 1% of the total of the microRNAs in at least one culture condition, with a |Log2 Ratio| below 0.5 and an adjusted P-value below 0.05.

[3] = test system: basal cells and pyramidal cells of the airway epithelium; test: miRNA expression in sorted basal cells versus pyramidal cells (ciliated + secretory), HTS and Agilent chips; parameters: species or system human; details: for Modulation of expression of the miRNAs in pyramidal cells (323(−)) relative to basal cells 323(+): HTS and Agilent chips; for Intensity of the level of expression in log2 in pyramidal cells (323(−)): pyramidal cells (ciliated + secretory)
Procedure: After dissociation of the stroma of nasal polyps, the epithelial cells (about 20.10^6) are incubated in PBS-BSA-EDTA for 30 min and then incubated with labeled antibody CD151-PE and anti-TF (tissue factor)-FITC for 20 min, 4° C. (see Hajj, R. et al., Stem Cells 25, 139-148 (2007)). After washing twice, the cells are taken up in PBS-EDTA and incubated with DAPI for labeling the cells whose integrity has been altered.
Cell sorting was carried out on the FACSAria sorter (BD Biosciences) equipped with 3 lasers, blue, red and violet. Dead cells, aggregates and double cells were excluded. The doubly positive population of basal cells (CD151+/FT+) and the negative population of cylindrical cells (containing ciliated cells and mucus-secreting cells) (CD151−/FT−) were selected and sorted at a rate of 5000 events/s ([…]). The purity and identity of the sorted cells were then verified by cytometry and immunocytochemistry.
Like the native airway epithelium, the model of differentiation in vitro used in these tests consists of basal cells, ciliated cells and mucus-secreting cells. In order to identify the repertoires of the miRNAs specific to each of the cellular types, the inventors used cell sorting by flow cytometry by means of specific markers (Hajj, R. et al. 2007). Using this technique, adult airway progenitor cells (corresponding a priori to basal cells) were isolated, selected and sorted (such cells appear doubly positive for tetraspanin CD151 and for the tissue factor) from the pyramidal cells (i.e. ciliated cells and mucus-secreting cells) which appear negative for these same markers. These were purified from polyps or from nasal conchae obtained from 3 separate donors.
After extracting the total RNAs, the expression profiles of the miRNAs were established by means of Agilent® commercial chips or by high-throughput sequencing (HTS). […] For the first time, the inventors thus attribute a repertoire of expression of the miRNAs specifically to separate cellular types of the airway epithelium during differentiation.

| Substance | Modulation (ratio of the level of intensity of expression in log2 in two stages of differentiation) measured with the Agilent chips, D7 − D0 [1] | Modulation (ratio of the level of intensity of expression in log2 in two stages of differentiation) measured with the Agilent chips, FC − D7 [1] | Modulation (ratio of the level of intensity of expression in log2 in two stages of differentiation) measured with the Agilent chips, WD − D0 [1] | Modulation (ratio of the level of intensity of expression in log2 in two stages of differentiation) measured with the Agilent chips, WD − FC [1] | Level of intensity of expression in log2 measured with the Agilent chips, D0 [1] | Level of intensity of expression in log2 measured with the Agilent chips, D7 [1] | Level of intensity of expression in log2 measured with the Agilent chips, FC [1] | Level of intensity of expression in log2 measured with the Agilent chips, WD [1] | Modulation (ratio of the level of intensity of expression in log2 in two stages of differentiation) measured by high-throughput sequencing, D7 − D0 [2] | Modulation (ratio of the level of intensity of expression in log2 in two stages of differentiation) measured by high-throughput sequencing, FC − D7 [2] | Modulation (ratio of the level of intensity of expression in log2 in two stages of differentiation) measured by high-throughput sequencing, WD − D0 [2] | Modulation (ratio of the level of intensity of expression in log2 in two stages of differentiation) measured by high-throughput sequencing, WD − FC [2] | Level of intensity of expression in log2 At the differentiated stage (WD) measured in HTS [2] | Level of intensity of expression in log2 measured by high-throughput sequencing, D0 [2] | Level of intensity of expression in log2 measured by high-throughput sequencing, D7 [2] | Level of intensity of expression in log2 measured by high-throughput sequencing, FC [2] | Level of intensity of expression in log2 measured by high-throughput sequencing, WD [2] | Modulation of expression of the miRNAs in pyramidal cells (323(−)) relative to basal cells 323(+) [3] | Intensity of the level of expression in log2 in basal cells (323(+)) [3] | Intensity of the level of expression in log2 in pyramidal cells (323(−)) [3] | also measured |
| --- | --- | --- | --- | --- | --- | --- | --- | --- | --- | --- | --- | --- | --- | --- | --- | --- | --- | --- | --- | --- | --- |
| hsa-miR-16: human miRNA, SEQ ID No. 10 (UAGCAGCACGUAAAUAUUGGCG; expressed or natural sequence; listed as Homo sapiens) | 2.07 log2 | −0.36 log2 | 1.59 log2 | −0.11 log2 | 9.47 log2 | 11.54 log2 | 11.18 log2 | 11.06 log2 | 2.01 log2 | −1.17 log2 | 2.22 log2 | 1.38 log2 | 5.35 log2 | 3.13 log2 | 5.14 log2 | 3.97 log2 | 5.35 log2 | −0.48 | 9.10 log2 | 8.62 log2 | Modulation (ratio of the level of intensity of expression in log2 at two stages of differentiation), FC − D7 [1]: −0.36 log2; Modulation (ratio of the level of intensity of expression in log2 at two stages of differentiation), WD − FC [1]: −0.11 log2 |
| hsa-miR-17: human miRNA, SEQ ID No. 11 (CAAAGUGCUUACAGUGCAGGUAG; expressed or natural sequence; listed as Homo sapiens) | 0.31 log2 | −1.14 log2 | −1.22 log2 | −0.39 log2 | 9.03 log2 | 9.34 log2 | 8.19 log2 | 7.81 log2 | −0.17 log2 | −0.87 log2 | −1.24 log2 | −0.20 log2 | 11.61 log2 | 12.85 log2 | 12.68 log2 | 11.81 log2 | 11.61 log2 | −2.60 | 6.64 log2 | 4.04 log2 | Modulation (ratio of the level of intensity of expression in log2 in two stages of differentiation), D7 − D0 ([2]; HTS): −0.17 log2; Modulation (ratio of the level of intensity of expression in log2 in two stages of differentiation), FC − D7 ([2]; HTS): −0.87 log2; Modulation (ratio of the level of intensity of expression in log2 in two stages of differentiation), WD − FC ([2]; HTS): −0.20 log2; Abundance (%), D0 ([2]; HTS, ALI-D0): 1.61%; Abundance (%), D7 ([2]; HTS, ALI-D7): 1.44%; Abundance (%), FC ([2]; HTS, ALI-FC): 0.76%; Abundance (%), WD ([2]; HTS, ALI-WD): 0.50% |
| hsa-miR-22: human miRNA, SEQ ID No. 23 (AAGCUGCCAGUUGAAGAACUGU; expressed or natural sequence; listed as Homo sapiens) | 1.09 log2 | −0.66 log2 | 0.48 log2 | 0.05 log2 | 10.67 log2 | 11.75 log2 | 11.10 log2 | 11.15 log2 | 0.80 log2 | −1.14 log2 | 0.40 log2 | 0.73 log2 | 11.22 log2 | 8.89 log2 | 9.69 log2 | 8.55 log2 | 9.29 log2 | −1.73 | 8.81 log2 | 7.07 log2 | Modulation (ratio of the level of intensity of expression in log2 at two stages of differentiation), FC − D7 [1]: −0.66 log2; Modulation (ratio of the level of intensity of expression in log2 at two stages of differentiation), WD − FC [1]: 0.05 log2 |

— patent US9023821B2, “Use of MicroRNA for treating diseases associated with a dysfunction of the cilia in multiciliated epithelial cells” (Centre National de la Recherche Scientifique, priority 2009, dated 2015)
